Structures can show the parent of a compound that is named as a salt.
Key:
[1] = test system: phenylquinone-induced writhing in mice; assay: Writhing test in mice; format: in vivo; conditions: Mus musculus, male NMRI mice; for inhibition at 10 mg/kg: 10 mg/kg intravenously 10 minutes before phenylquinone i.p., writhing counted 5-20 minutes after phenylquinone, read-out: % Inhibition of the writhing reaction with 10 mg/kg intravenously; for ED50: iv, intravenously, regression analysis of dose-dependent decrease in writhing reactions
Experimental: The analgesic activity was investigated on phenylquinone-induced writhing in mice (modified by I. C. Hendershot, J. Forsaith, J. Pharmacol. Exp. Ther. 125, 237-240 (1959)). Male NMRI mice weighing 25-30 g were used for this. Groups of 10 animals per dose of substance received 0.3 ml/mouse of a 0.02% aqueous solution of phenylquinone (phenylbenzoquinone, Sigma, Deisenhofen; preparation of the solution with addition of 5% ethanol and storage in a water bath at 45° C.) as an intraperitoneal administration 10 minutes after intravenous administration of the test substances. The animals were placed individually in observation cages. The number of pain-induced extension movements (so-called writhing reactions=straightening of the body with stretching out of the hind extremities) 5-20 minutes after the administration of phenylquinone was counted by means of a push-button counter. Animals which receive only physiological saline solution were also run as a control. All the substances were tested in the standard dosage of 10 mg/kg. The percentage inhibition (% inhibition) of the writhing reaction by a substance was calculated in accordance with the following equation: [formula]
For some substances, the ED50 values with 95% confidence limits of the writhing reaction were calculated from the dose-dependent decrease in the writhing reactions compared with phenylquinone control groups investigated in parallel by means of regression analysis (evaluation program of Martens EDV Service, Eckental Germany).

melting point	SMILES	inhibition at 10 mg/kg [1]	ED50 [1]
	COc1cccc(-c2ccccc2CN(C)C)c1 [Example 1, (3′-Methoxybiphenyl-2-ylmethyl)dimethylamine hydrochloride]	53%	
	CN(C)Cc1ccccc1-c1ccc(Cl)cc1.Cl [Example 2, (4′-Chlorobiphenyl-2-ylmethyl)dimethylamine hydrochloride]	89%	4.55 mg/kg
	CN(C)Cc1ccccc1-c1cccc(O)c1.Cl [Example 3, 2′-Dimethylaminomethylbiphenyl-3-ol hydrochloride]	100%	0.24 mg/kg
	COc1ccccc1-c1ccccc1CN(C)C.Cl [Example 4, (2′-Methoxybiphenyl-2-ylmethyl)dimethylamine hydrochloride]	75%	3.95 mg/kg
	CN(C)Cc1ccccc1-c1cccc(Cl)c1.Cl [Example 5, (3′-Chlorobiphenyl-2-ylmethyl)dimethylamine hydrochloride]	68%	4.31 mg/kg
	CN(C)Cc1ccccc1-c1ccccc1F.Cl [Example 6, (2′-Fluorobiphenyl-2-ylmethyl)dimethylamine hydrochloride]	88%	4.26 mg/kg
	CN(C)Cc1ccccc1-c1cccc(F)c1.Cl [Example 7, (3′-Fluorobiphenyl-2-ylmethyl)dimethylamine hydrochloride]	90%	2.55 mg/kg
	CN(C)Cc1ccccc1-c1ccc(F)cc1.Cl [Example 8, (4′-Fluorobiphenyl-2-ylmethyl)dimethylamine hydrochloride]	67%	7.15 mg/kg
	CN(C)Cc1ccccc1-c1ccc(F)c(Cl)c1.Cl [Example 9, (3′-Chloro-4′-fluorobiphenyl-2-ylmethyl)dimethylamine hydrochloride]	89%	2.32 mg/kg
	COc1cccc(-c2ccccc2CCN(C)C)c1.Cl [Example 10, (3′-Methoxybiphenyl-2-ylethyl)dimethylamine hydrochloride]	100%	1.7 mg/kg
	Cc1cc2c(-c3ccccc3CN(C)C)cccc2o1 [Example 11, Dimethyl-[2-(2-methylbenzofuran-4-yl)benzyl]amine hydrochloride]	74%	
	CN(C)Cc1ccccc1-c1ccccc1C=O.Cl [Example 12, 2′-Dimethylaminomethylbiphenyl-2-carbaldehyde hydrochloride]	89%	1.74 mg/kg
	CN(C)Cc1ccccc1-c1cccc(C(F)F)c1.Cl [Example 13, (3′-Difluoromethylbiphenyl-2-ylmethyl)dimethylamine hydrochloride]	81%	5.3 mg/kg
	CN(C)Cc1ccccc1-c1cccc(C=O)c1.Cl [Example 14, 2′-Dimethylaminomethylbiphenyl-3-carbaldehyde hydrochloride]	100%	2.28 mg/kg
	CN(C)Cc1ccccc1-c1ccccc1.Cl [Example 15, biphenyl-2-ylmethyldimethylamine hydrochloride]	52%	3.66 mg/kg
	CN(C)Cc1ccccc1-c1ccc(Cl)c(Cl)c1.Cl [Example 16, (3′,4′-Dichlorobiphenyl-2-ylmethyl)dimethylamine hydrochloride]	89%	4.59 mg/kg
	CN(C)Cc1ccccc1-c1cc(Cl)cc(Cl)c1 [Example 17, (3′,5′-Dichlorobiphenyl-2-ylmethyl)dimethylamine hydrochloride]	90%	
	CN(C)Cc1ccccc1-c1ccc([N+](=O)[O-])c(C(F)(F)F)c1 [Example 18, Dimethyl-(4′-nitro-3′-trifluoromethylbiphenyl-2-ylmethyl)amine hydrochloride]	83%	
	CN(C)Cc1ccccc1-c1ccc(F)c(F)c1 [Example 19, (3′,4′-Difluorobiphenyl-2-ylmethyl)dimethylamine hydrochloride]	86%	
	CN(C)Cc1ccccc1-c1ccc(F)c(C(F)(F)F)c1.Cl [Example 20, (4′-Fluoro-3′-trifluoromethylbiphenyl-2-ylmethyl)dimethyl-amine hydrochloride]	83%	4.99 mg/kg
	COc1cc(-c2ccccc2CN(C)C)ccc1Cl.Cl [Example 21, (4′-Chloro-3′-methoxybiphenyl-2-ylmethyl)dimethylamine hydrochloride]	53%	6.78 mg/kg
182 °C	CC(=O)Nc1ccc(-c2ccccc2CN(C)C)cc1OC(F)(F)F.Cl [Example 22, N-(2′-Dimethylaminomethyl-3-trifluoromethoxybiphenyl-4-yl)acetamide hydrochloride]	76%	6.05 mg/kg

melting point	SMILES	inhibition at 10 mg/kg [1]	ED50 [1]
	CC(C)Oc1cccc(-c2ccccc2CN(C)C)c1 [Example 23, (3′-Isopropoxybiphenyl-2-ylmethyl)dimethylamine hydrochloride]	97%	
	CN(C)CCc1ccccc1-c1cccc(O)c1.Cl [Example 24, 2′-(2-Dimethylaminoethyl)biphenyl-3-ol hydrochloride]	99%	2.27 mg/kg
	CN(C)Cc1ccccc1-c1ccc(Cl)c(O)c1 [Example 25, 4-Chloro-2′-dimethylaminomethylbiphenyl-3-ol hydrochloride]	74%	
	CN(C)Cc1ccccc1-c1ccc2[nH]ccc2c1 [Example 26, [2-(1H-Indol-5-yl)benzyl]dimethylamine]	100%	0.75 mg/kg
	CN(C)Cc1ccccc1-c1ccc(S(C)(=O)=O)cc1 [Example 27, (4′-Methanesulfonylbiphenyl-2-ylmethyl)dimethylamine hydrochloride]	89%	
	CN(C)Cc1ccccc1-c1ccc(Cl)cc1Cl [Example 28, (2′,4′-Dichlorobiphenyl-2-ylmethyl)dimethylamine hydrochloride]	90%	
	CN(C)Cc1ccccc1-c1cccc(F)c1F.Cl [Example 29, (2′,3′-Difluorobiphenyl-2-ylmethyl)dimethylamine hydrochloride]	83%	5.71 mg/kg
	CN(C)Cc1ccccc1-c1cc(F)ccc1F [Example 30, (2′,5′-Difluorobiphenyl-2-ylmethyl)dimethylamine hydrochloride]	89%	
	CN(C)Cc1ccccc1-c1ccc2c(c1)OCO2 [Example 31, (2-Benzo [1,3]dioxol-5-ylbenzyl)dimethylamine hydrochloride]	94%	
	CC(=O)c1cccc(-c2ccccc2CCN(C)C)c1 [Example 32, 1-[2′-(2-Dimethylaminoethyl)biphenyl-3-yl]ethanone hydrochloride]	98%	
	COc1ccc(-c2ccccc2CCN(C)C)cc1OC [Example 33, [2-(3′,4′-Dimethoxybiphenyl-2-yl)ethyl]dimethylamine hydrochloride]	89%	
	CC(C)Oc1cccc(-c2ccccc2CCN(C)C)c1 [Example 34, [2-(3′-Isopropoxybiphenyl-2-yl)ethyl]dimethylamine hydrochloride]	80%	
	COc1cc(-c2ccccc2CCN(C)C)ccc1Cl [Example 35, [2-(4′-Chloro-3′-methoxybiphenyl-2-yl)ethyl]dimethylamine hydrochloride]	88%	
	CN(C)CCc1ccccc1-c1ccc(Cl)c(O)c1 [Example 36, 4-Chloro-2′-(2-dimethylaminoethyl)biphenyl-3-ol hydrochloride]	93%	
	CN(C)Cc1ccccc1-c1cccc([N+](=O)[O-])c1 [Example 37, Dimethyl-(3′-nitrobiphenyl-2-ylmethyl)amine hydrochloride]	60%	
	CN(C)Cc1ccccc1-c1ccc(N)c(O)c1 [Example 38, 4-Amino-2′-dimethylaminomethylbiphenyl-3-ol dihydrochloride]	65%	
	CN(C)Cc1ccccc1-c1cc(F)cc(F)c1 [Example 39, (3′,5′-Difluorobiphenyl-2-ylmethyl)dimethylamine hydrochloride]	80%	
	COc1ccc(OC)c(-c2ccccc2CN(C)C)c1 [Example 40, (2′,5′-Dimethoxybiphenyl-2-ylmethyl)dimethylamine hydrochloride]	57%	
	CN(C)Cc1ccccc1-c1cc(OC(F)(F)F)ccc1N [Example 41, 2′-Dimethylaminomethyl-5-trifluoromethoxybiphenyl-2-ylamine dihydrochloride]	56%	
	CC(=O)Nc1ccc(OC(F)(F)F)cc1-c1ccccc1CN(C)C [Example 42, N-(2′-Dimethylaminomethyl-5-trifluoromethoxybiphenyl-2-yl)acetamide hydrochloride]	44%	
	CN(C)Cc1ccccc1-c1cc(Cl)c(N)c(Cl)c1 [Example 43, 3,5-Dichloro-2′-dimethylaminomethyl-biphenyl-4-ylamine hydrochloride]	99%	

Source: patent US6710080B2, “Substituted 2-dialkylaminoalkylbiphenyl derivatives” (Gruenenthal GmbH, priority 1999, dated 2004)
